Data taken from patent EP4122461A1 (priority 2021, dated 2023).
pIC50: −log10 of the molar value.

Legend:
[1] = system: SARS-2-S-driven cell entry; assay type: cell-based, SARS-CoV-2
[2] = system: SARS-CoV-2 isolate hCoV-19/Germany/FI1103201/2020; assay type: cell-based; details: PCLS from a single donor; Fig. 1C
[3] = across a 100-fold dose range; cohort of healthy subjects; cited from earlier work
[4] = blood and urine; cited from earlier work
[5] = in vivo; cited from earlier work

Row | SMILES | pIC50 [1] | inhibitory effects in human PCLS [2] | SARS-CoV-2 cell entry is inhibited [1] | tolerability [3] | stability of ester and amide groups [4] | plasma distribution and elimination [5]
1 | CN(C)C(=O)COC(=O)Cc1ccc(OC(=O)c2ccc(NC(=N)N)cc2)cc1 [Camostat, camostat] | 6.82 | comparable | – | – | – | –
2 | N=C(N)c1ccc2cc(OC(=O)c3ccc(N=C(N)N)cc3)ccc2c1 [Nafamostat, nafamostat] | 7.93 | – | – | – | – | –
3 | COC(=O)[C@H](Cc1cccc(C(=N)N)c1)[C@@H](C)NC(=O)c1ccc(-c2cc[n+]([O-])cc2)cc1 [Otamixaban, otamixaban] | 4.73 | comparable | 36% | well tolerated | stable | rapid plasma distribution and elimination
